Results on one molecule are retold here after patent US7638639B2, “Substituted pyrrolidine and related compounds” (Theravance, Inc., priority 2003, dated 2009).

The assay deals with T1, hM2 muscarinic receptor subtype (Homo sapiens, UniProt P08172).
T1 construct: expressed in transfected cells
T1 sequence (P08172 1-466): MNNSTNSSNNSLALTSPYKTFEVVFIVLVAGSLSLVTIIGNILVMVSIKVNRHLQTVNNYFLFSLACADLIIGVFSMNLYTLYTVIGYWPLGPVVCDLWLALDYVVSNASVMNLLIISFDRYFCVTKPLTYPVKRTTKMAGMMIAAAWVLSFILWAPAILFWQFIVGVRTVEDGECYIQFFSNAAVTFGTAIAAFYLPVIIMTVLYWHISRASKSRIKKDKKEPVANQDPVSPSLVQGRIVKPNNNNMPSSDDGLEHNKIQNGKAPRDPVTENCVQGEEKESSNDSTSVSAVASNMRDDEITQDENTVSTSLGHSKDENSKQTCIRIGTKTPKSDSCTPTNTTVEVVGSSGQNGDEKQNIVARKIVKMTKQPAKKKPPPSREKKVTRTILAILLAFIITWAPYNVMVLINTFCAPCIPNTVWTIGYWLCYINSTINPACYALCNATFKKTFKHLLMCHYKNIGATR
Description: Radioligand binding assay ([3H]-NMS displacement), hM2. The protocol:
A. Membrane Preparation from Cells Expressing hM1, hM2, hM3 and hM4 Muscarinic Receptor Subtypes
CHO (Chinese hamster ovary) cell lines stably expressing cloned human hM1, hM2, hM3 and hM4 muscarinic receptor subtypes, respectively, were grown to near confluency in medium consisting of HAM's F-12 supplemented with 10% FBS (Fetal Bovine Serum) and 250 μg/mL Geneticin. The cells were grown in a 5% CO2, 37° C. incubator and lifted with 2 mm EDTA in dPBS. Cells were collected by 5 minute centrifugation at 650×g, and cell pellets were either stored frozen at −80° C. or membranes were prepared immediately. For membrane preparation, cell pellets were resuspended in lysis buffer and homogenized with a Polytron PT-2100 tissue disrupter (Kinematica AG; 20 seconds×2 bursts). Crude membranes were centrifuged at 40,000×g for 15 minutes at 4° C. The membrane pellet was then resuspended with resuspension buffer and homogenized again with the Polytron tissue disrupter. The protein concentration of the membrane suspension was determined by the method described in Lowry, O. et al., 1951, […]: 193, 265. All membranes were stored frozen in aliquots at −80° C. or used immediately. Aliquots of prepared hM5 receptor membranes were purchased directly from Perkin Elmer and stored at −80° C. until use.
B. Radioligand Binding Assay on Muscarinic Receptor Subtypes hM1, hM2, hM3, hM4 and hM5
Radioligand binding assays were performed in 96-well microtiter plates in a total assay volume of 100 μL. CHO cell membranes stably expressing either the hM1, hM2, hM3, hM4 or hM5 muscarinic subtype were diluted in assay buffer to the following specific target protein concentrations (μg/well): 10 μg for hM1, 10-15 μg for hM2, 10-20 μg for hM3, 10-20 μg for hM4, and 10-12 μg for hM5. The membranes were briefly homogenized using a Polytron tissue disruptor (10 seconds) prior to assay plate addition. Saturation binding studies for determining KD values of the radioligand were performed using L-[N-methyl-3H]scopolamine methyl chloride ([^3H]-NMS) (TRK666, 84.0 Ci/mmol, Amersham Pharmacia Biotech, Buckinghamshire, England) at concentrations ranging from 0.001 nM to 20 nM. Displacement assays for determination of Ki values of test compounds were performed with [^3H]-NMS at 1 nM and eleven different test compound concentrations. The test compounds were initially dissolved to a concentration of 400 μM in dilution buffer and then serially diluted 5× with dilution buffer to final concentrations ranging from […] to […]. The addition order and volumes to the assay plates were as follows: 25 μL radioligand, 25 μL diluted test compound, and 50 μL membranes. Assay plates were incubated for 60 minutes at 37° C. Binding reactions were terminated by rapid filtration over GF/B glass fiber filter plates (PerkinElmer Inc., Wellesley, Mass.) pre-treated in 1% BSA. Filter plates were rinsed three times with wash buffer (10 mm HEPES) to remove unbound radioactivity. Plates were then air dried, and 50 μL Microscint-20 liquid scintillation fluid (PerkinElmer Inc., Wellesley, Mass.) was added to each well. The plates were then counted in a PerkinElmer Topcount liquid scintillation counter (PerkinElmer Inc., Wellesley, Mass.). Binding data were analyzed by nonlinear regression analysis with the GraphPad Prism Software package (GraphPad Software, Inc., San Diego, Calif.) using the one-site competition model. Ki values for test compounds were calculated from observed IC50 values and the KD value of the radioligand using the Cheng-Prusoff equation (Cheng Y; Prusoff W H. (1973) Biochemical Pharmacology, 22(23):3099-108). Ki values were converted to pKi values to determine the geometric mean and 95% confidence intervals. These summary statistics were then converted back to Ki values for data reporting.

SMILES strings stand for the structures.

For the molecule `CNCCCCCCCCN1CC[C@@H](C(C(N)=O)(c2ccccc2)c2ccccc2)C1` [Example 1, 2-[(S)-1-(8-Methylaminooctyl)pyrrolidin-3-yl]-2,2-diphenylacetamide], the Ki – broadly, the dissociation constant of the complex between target and ligand, obtained from inhibition or displacement – (CHO cell membranes, [3H]-NMS 1 nM, read-out: hM2 binding affinity (Ki)) was determined as 3.8 nM. Besides, where the note is “ratio of hM2 Ki values”, the “Δ hM2: change in binding affinity relative to compound of the invention” value is on record as “×4.7”.
